Source: ChEMBL document CHEMBL3507680, “University of Dundee, Gates Library screen for HepG2 cell viability”

Experiment: Human HepG2 cell viability assay in 384 well format
Type: toxicity, cell-based
Parameters: dose 125 nL, time 70.5 hour; cytotoxicity at 70.5 h: concentration not given beside the values
Conditions: HepG2 cells, read-out: Inhibition
For `CCN(CC)c1ccc(NS(=O)(=O)c2cnn(C(C)C)c2)cn1`, the cytotoxicity at 70.5 h was -6.47%.
`Cc1ccc(OCC(=O)NCC(F)(F)F)nc1` showed a cytotoxicity at 70.5 h of -4.18%.
`COCCCN1CCC(NC(=O)C2CC2)CC1` showed a cytotoxicity at 70.5 h of -4.57%.
Compound `CC(C)(C)c1cnc(CNCC2CCCN2c2cccnn2)o1` (stereo not given) has a cytotoxicity at 70.5 h of 18.8%.
`CN(Cc1nnc(C2CC2)n1C)C1CCN(CCS(C)(=O)=O)C1` (stereo not given) showed a cytotoxicity at 70.5 h of -6.94%.
For `CCN(CC)C(=O)CN(C)CCn1nc2ccccn2c1=O`, the cytotoxicity at 70.5 h was -4.24%.
In the case of `CC(=O)N1CCCN(CCn2nc3ccccn3c2=O)CC1`, the cytotoxicity at 70.5 h was -0.882%.
`N#Cc1ncn(CCC(=O)Nc2ccc(F)c(F)c2)n1` showed a cytotoxicity at 70.5 h of -9.3%.
Work on `CCC(=O)Nc1ccc(C(C)NC(=O)COC)cc1` (stereo not given) yielded a cytotoxicity at 70.5 h of -9.08%.
`O=C(NCCCN1CCOCC1)c1cc(-c2ccccc2)[nH]n1` gave a cytotoxicity at 70.5 h of -1.59%.
Work on `CC(=O)N(c1ccc(C)cc1)c1nc(CN2CCCC(C)C2)cs1` (stereo not given) yielded a cytotoxicity at 70.5 h of 12.3%.
In the case of `O=C(CCc1ccccn1)N1CCSC2(CCCCC2)C1`, the cytotoxicity at 70.5 h was 3.22%.
For `CC(C)=CCN1CCN(C(C)c2cccnc2)CC1` (stereo not given), the cytotoxicity at 70.5 h was -1.42%.
For `Cc1ccc(CNC(=O)CN(C)CC2CCN(CCO)CC2)s1`, the cytotoxicity at 70.5 h was 2.24%.
Compound `CC(c1cccnc1)N1CCN(CCCC#N)CC1` (stereo not given) has a cytotoxicity at 70.5 h of 15%.
In the case of `COc1cccc(SCC(=O)N2CCC(N3CCCC3=O)CC2)c1`, the cytotoxicity at 70.5 h was -6.36%.
With `CCN(Cc1ccoc1)C(C(N)=O)c1ccc(C#N)cc1` (stereo not given) the cytotoxicity at 70.5 h was -1.21%.
Compound `COc1ncccc1C(=O)N1CCCC1c1c(C)n[nH]c1C` (stereo not given) has a cytotoxicity at 70.5 h of 37.5%.
For `C1CCC(NCC2(N3CCOCC3)CCSC2)C1` (stereo not given), the cytotoxicity at 70.5 h was 14.2%.
`CC(=O)c1ccc(S(=O)(=O)N2CCCC2CN2CCCC2)cc1` (stereo not given) gave a cytotoxicity at 70.5 h of -8.94%.
`CS(=O)(=O)c1nnc(NC(=O)CCc2cc(F)ccc2F)[nH]1` gave a cytotoxicity at 70.5 h of -14.9%.
In the case of `CC(=O)N(C)c1nc(CN2CCN(c3nccs3)CC2)cs1`, the cytotoxicity at 70.5 h was -5.68%.
In the case of `Cc1nnc(N2CCN(C(=O)NC3CC3)CC2)c(C(N)=O)c1C`, the cytotoxicity at 70.5 h was -15.7%.
For `Cc1ccsc1CNC(=O)Nc1ccn(CCN2CCOCC2)n1`, the cytotoxicity at 70.5 h was 14.8%.
In the case of `O=C1CCc2cc(S(=O)(=O)NC(=O)c3ccc4c(c3)COC4)ccc2N1`, the cytotoxicity at 70.5 h was -12.1%.
Compound `CSc1ccc(NC(=O)Cc2cccc(O)c2)nc1` has a cytotoxicity at 70.5 h of -20.9%.
In the case of `CN(C(=O)c1ccco1)C1CCC(NC(=O)OC(C)(C)C)CC1` (stereo not given), the cytotoxicity at 70.5 h was -6.4%.
Compound `CN(C(=O)c1ccc[nH]1)C1CCC(NC(=O)OC(C)(C)C)CC1` (stereo not given) has a cytotoxicity at 70.5 h of -17.5%.
In the case of `COCc1ccc(C(=O)NS(=O)(=O)c2ccc3c(c2)CCC(=O)N3)cc1`, the cytotoxicity at 70.5 h was 17.1%.
`CC(=O)N1CCc2ccc(S(=O)(=O)N3CCCCC3C)cc21` (stereo not given) showed a cytotoxicity at 70.5 h of 0.13%.
For `CN(Cc1ccc([S+](C)[O-])cc1)c1ccccn1` (stereo not given), the cytotoxicity at 70.5 h was -10.9%.
In the case of `O=C(Nc1cc(CSCCO)ccn1)c1ccc(Cl)o1`, the cytotoxicity at 70.5 h was -10.5%.
For `Cc1ccsc1CNC(=O)CC1CN(C(=O)OC(C)(C)C)C1`, the cytotoxicity at 70.5 h was -9.31%.
In the case of `CCNC(=O)CN1CCSC2(CCCCC2)C1`, the cytotoxicity at 70.5 h was -11.1%.
Work on `CNS(=O)(=O)CCCN1CCCCCC1c1ccc(C)o1` (stereo not given) yielded a cytotoxicity at 70.5 h of -11%.
With `Cc1cscc1C(=O)Nc1cc(CSCCO)ccn1` the cytotoxicity at 70.5 h was -3.95%.
In the case of `Cc1cccc2nc(CSCc3nnnn3C(C)C)cn12`, the cytotoxicity at 70.5 h was -14.3%.
`COCCN(Cc1ccco1)Cc1nc(-c2ccccc2)no1` showed a cytotoxicity at 70.5 h of 19.2%.
For `Cc1nc(-c2ccccc2C)n(CC(=O)NC(C)C2CC2)n1` (stereo not given), the cytotoxicity at 70.5 h was -5.7%.
For `Cc1nc(C)n(CC2CCCN2c2ncnc3c2CCC3)n1` (stereo not given), the cytotoxicity at 70.5 h was 15.2%.
`CCCC(C#N)NC(=O)Cc1csc(CC)n1` (stereo not given) showed a cytotoxicity at 70.5 h of -0.509%.
With `COCCSc1ccc(C(C)NC(=O)Nc2cn[nH]c2)cc1` (stereo not given) the cytotoxicity at 70.5 h was -6.86%.
For `Cc1nc(-c2ccccc2)n(CC(=O)NC(C2CC2)C2CC2)n1`, the cytotoxicity at 70.5 h was -4.87%.
In the case of `Cc1ccsc1CNc1ccc(C(=O)N2CCNC(=O)C2)cn1`, the cytotoxicity at 70.5 h was -2.58%.
In the case of `Cc1noc(C)c1CN(C)Cc1nc(N)c2ccccc2n1`, the cytotoxicity at 70.5 h was 13.8%.
`CC(C)Oc1ccc(-c2csc(Cn3ccc(=O)[nH]c3=O)n2)cc1` showed a cytotoxicity at 70.5 h of -0.0528%.
Compound `O=C(Nc1ccccc1)NC1CCN(C2CCOC2)CC1` (stereo not given) has a cytotoxicity at 70.5 h of 5.7%.
For `Cc1cccc(NC(=O)NC2CCN(C3CCOC3)CC2)c1` (stereo not given), the cytotoxicity at 70.5 h was 3.03%.
Compound `O=C(NCc1ccccn1)Nc1ccc2[nH]nnc2c1` has a cytotoxicity at 70.5 h of -4.24%.
`Cn1cnnc1-c1cncc(NCc2ccccc2Br)c1` gave a cytotoxicity at 70.5 h of 13.6%.
Work on `CC(=O)c1csc(-c2csc(Cn3ccc(=O)[nH]c3=O)n2)c1` yielded a cytotoxicity at 70.5 h of 4.03%.
In the case of `NC(=O)NC(=O)CCn1ccc(-c2ccsc2)n1`, the cytotoxicity at 70.5 h was -1.15%.
In the case of `Cc1noc(C)c1CSCc1nc(N)c2ccccc2n1`, the cytotoxicity at 70.5 h was 0.626%.
In the case of `C[C@@H]1CN(C(=O)Nc2cccc(OC(F)F)c2)CC(C(N)=O)O1` (stereo not given in full), the cytotoxicity at 70.5 h was -1.07%.
For `Cn1cc(S(=O)(=O)N2CCC(OCCCc3ccccc3)C2)cn1` (stereo not given), the cytotoxicity at 70.5 h was 21.6%.
Work on `CCc1nc(CC(=O)NC(C#N)CC(C)C)cs1` (stereo not given) yielded a cytotoxicity at 70.5 h of -0.177%.
In the case of `COCCN(Cc1ccco1)Cc1nc(-c2ccsc2)no1`, the cytotoxicity at 70.5 h was 11.1%.
`COCCN(Cc1ccco1)Cc1nc(-c2ccccc2C)no1` showed a cytotoxicity at 70.5 h of 1.45%.
In the case of `COCCN(Cc1ccco1)Cc1nc(-c2ccc(C)c(F)c2)no1`, the cytotoxicity at 70.5 h was 17.2%.
Compound `CCc1nc(CC(=O)NC(C#N)CC)cs1` (stereo not given) has a cytotoxicity at 70.5 h of -0.988%.
